Laboratory results: patent US11339155B2, “2-(het)aryl-substituted fused bicyclic heterocycle derivatives as pesticides” (Bayer CropScience Aktiengesellschaft, priority 2016, dated 2022)

How the values were obtained:
Nezara viridula = Nezara viridula spray test (NEZAVI); type: in vivo; details: 96 h, 4 dat, read-out: % efficacy
Procedure: (§1) Solvent: 52.5 parts by weight of acetone • 7 parts by weight of dimethylformamide
(§2) Emulsifier: alkylaryl polyglycol ether
(§3) To produce a suitable active compound preparation, 1 part by weight of active compound is dissolved with the specified parts by weight of solvent and made up to the desired concentration with water containing an emulsifier concentration of 1000 ppm. To produce further test concentrations, the formulation is diluted with emulsifier-containing water. If the addition of ammonium salts or/and penetrants is required, these are each added in a concentration of 1000 ppm to the formulation solution.
Barley plants (Hordeum vulgare) infected with larvae of the Southern green shield bug (Nezara viridula) are sprayed with an active compound preparation of the desired concentration.
After the desired period of time, the efficacy in % is determined. 100% means that all of the shield bugs have been killed; 0% means that none of the shield bugs have been killed.

Myzus persicae [1] = assay: Myzus persicae oral test; type: in vivo; details: 120 h, after 5 days, read-out: efficacy
Procedure: Solvent: 100 parts by weight of acetone
To produce a suitable active compound preparation, 1 part by weight of active compound is dissolved with the stated parts by weight of solvent and made up to the desired concentration with water.
50 μl of the active compound preparation are transferred into microtitre plates and made up to a final volume of 200 μl with 150 μl of IPL41 insect medium (33%+15% sugar). Subsequently, the plates are sealed with parafilm, which a mixed population of green peach aphids (Myzus persicae) within a second microtitre plate is able to puncture and imbibe the solution.
(§4) After 5 days, the efficacy in % is determined. 100% means that all the aphids have been killed; 0% means that no aphids have been killed.

Myzus persicae [2] = assay: Myzus persicae spray test (MYZUPE); type: in vivo; details: 120 h; for pest or weed control at 100 g/ha / pest or weed control at 500 g/ha: foliar, Chinese cabbage leaf discs, after 5 days, read-out: efficacy; for Emax at 20 g/ha: MYZUPE, 5 dat, read-out: % efficacy
Procedure: Solvent: 78 parts by weight of acetone • • 1.5 parts by weight of dimethylformamide
as §2
as §3, with “water.” for “water. If the addition of ammonium salts or/and penetrants is required, these are each added in a concentration of 1000 ppm to the formulation solution.”
Discs of Chinese cabbage leaves (Brassica pekinensis) infested by all stages of the green peach aphid (Myzus persicae) are sprayed with an active compound preparation of the desired concentration.
as §4
(§5) Solvent: 78.0 parts by weight of acetone • • 1.5 parts by weight of dimethylformamide
After the desired period of time, the efficacy in % is determined. 100% means that all the aphids have been killed; 0% means that no aphids have been killed.

Ctenocephalides felis [3] = assay: Ctenocephalides felis in vitro contact test with adult cat fleas; type: in vivo; details: 5 μg/cm^2 (=500 g/ha), after 48 h
Procedure: For the coating of the test tubes, 9 mg of active compound are first dissolved in 1 ml of acetone p.a. and then diluted to the desired concentration with acetone p.a. 250 μl of the solution are distributed homogeneously on the inner walls and the base of a 25 ml glass tube by turning and rocking on an orbital shaker (rocking rotation at 30 rpm for 2 h). With 900 ppm of active compound solution and internal surface area 44.7 cm^2, given homogeneous distribution, an area-based dose of 5 μg/cm^2 is achieved.
After the solvent has evaporated off, the tubes are populated with 5-10 adult cat fleas (Ctenocephalides felis), sealed with a perforated plastic lid and incubated in a horizontal position at room temperature and ambient humidity. After 48 h, efficacy is determined. To this end, the tubes are stood upright and the fleas are knocked to the base of the tube. Fleas which remain motionless at the base or move in an uncoordinated manner are considered to be dead or moribund.
100% efficacy means that all the fleas were dead or moribund. 0% efficacy means that no fleas were harmed.

[4] = log P by HPLC on reversed-phase column (EEC Directive 79/831 Annex V.A8); type: physicochemical; details: reversed-phase C18 HPLC column, C 18 reversed phase, 55° C., pH 7.8, read-out: log P (neutral)
Description: Called log P (neutral) in the table.

Lucilia cuprina = Lucilia cuprina test; type: in vivo; details: 100 ppm, L1 larvae, after 2 days
Procedure: Solvent: dimethyl sulfoxide To produce a suitable active compound preparation, 10 mg of active compound are mixed with 0.5 ml of dimethyl sulfoxide, and the concentrate is diluted with water to the desired concentration. About 20 L1 larvae of the Australian sheep blowfly (Lucilia cuprina) are transferred into a test vessel containing minced horsemeat and the active compound preparation of the desired concentration. After 2 days, the kill in % is determined. 100% means that all the larvae have been killed; 0% means that no larvae have been killed.

Phaedon cochleariae = Phaedon cochleariae spray test (PHAECO); type: in vivo; details: for efficacy: larvae on Chinese cabbage leaf discs, after 7 days; for Emax at 20 g/ha: Phaedon cochleariae, 168 h, PHAECO, 7 dat, read-out: % efficacy
Procedure: as §5, §2
as §3, with “water.” for “water. If the addition of ammonium salts or/and penetrants is required, these are each added in a concentration of 1000 ppm to the formulation solution.”
After 7 days, the efficacy in % is determined. 100% means that all the beetle larvae have been killed; 0% means that no beetle larvae have been killed.
After the desired period of time, the efficacy in % is determined. 100% means that all the beetle larvae have been killed; 0% means that no beetle larvae have been killed.

Ctenocephalides felis [5] = assay: Ctenocephalides felis oral test; type: in vivo; details: 100 ppm in citrated cattle blood, adult cat fleas, after 2 days
Procedure: Solvent: dimethyl sulfoxide To produce a suitable active compound preparation, 10 mg of active compound are mixed with 0.5 ml of dimethyl sulfoxide. Dilution with citrated cattle blood gives the desired concentration. About 20 unfed adult cat fleas (Ctenocephalides felis) are placed into a chamber which is closed at the top and bottom with gauze. A metal cylinder whose bottom end is closed with parafilm is placed onto the chamber. The cylinder contains the blood/active compound preparation, which can be imbibed by the fleas through the parafilm membrane. After 2 days, the kill in % is determined. 100% means that all of the fleas have been killed; 0% means that none of the fleas have been killed.

Meloidogyne incognita = Meloidogyne incognita test; type: in vivo; details: 20 ppm, lettuce, after 14 days
Procedure: Solvent: 125.0 parts by weight of acetone To produce a suitable active compound preparation, 1 part by weight of active compound is mixed with the stated amount of solvent and the concentrate is diluted to the desired concentration with water. Vessels are filled with sand, active compound solution, an egg/larvae suspension of the southern root-knot nematode (Meloidogyne incognita) and lettuce seeds. The lettuce seeds germinate and the plants develop. The galls develop on the roots. After 14 days, the nematicidal efficacy in % is determined by the formation of galls. 100% means that no galls were found; 0% means that the number of galls on the treated plants corresponds to the untreated control.

Tetranychus urticae = Tetranychus urticae spray test, OP-resistant (TETRUR); type: in vivo; details: for Emax at 100 g/ha / Emax at 500 g/ha: Tetranychus urticae, 144 h, TETRUR, read-out: % efficacy; for Emax at 100 g/ha: 6 dat (comparative table); for Emax at 500 g/ha: 6 dat; for Emax at 100 g/ha / efficacy: 100 g/ha; for efficacy: bean leaf discs, after 6 days
Procedure: as §5, §2
as §3, with “water.” for “water. If the addition of ammonium salts or/and penetrants is required, these are each added in a concentration of 1000 ppm to the formulation solution.”
Discs of bean leaves (Phaseolus vulgaris) infested with all stages of the greenhouse red spider mite (Tetranychus urticae) are sprayed with an active compound preparation of the desired concentration.
After 6 days, the efficacy in % is determined. 100% means that all the spider mites have been killed; 0% means that no spider mites have been killed.
After the desired period of time, the efficacy in % is determined. 100% means that all the spider mites have been killed; 0% means that no spider mites have been killed.

Nilaparvata lugens = Nilaparvata lugens spray test (NILALU); type: in vivo; details: 96 h, 4 dat, read-out: % efficacy
Procedure: as §1, §2, §3
Rice plants (Oryza sativa) are sprayed with an active compound preparation of the desired concentration and then populated with larvae of the brown planthopper (Nilaparvata lugens).
After the desired period of time, the efficacy in % is determined. 100% means that all of the planthoppers have been killed; 0% means that none of the planthoppers have been killed.

SMILES	pest or weed control at 4 ppm (Myzus persicae [1]) [%]	pest or weed control at 100 g/ha (Myzus persicae [2]) [%]	efficacy (kill in %) (Ctenocephalides felis [5]) [%]	nematicidal efficacy (formation of galls) (Meloidogyne incognita) [%]	pest or weed control at 20 ppm (Myzus persicae [1]) [%]	also measured
CCS(=O)(=O)c1ccc(NC(C)=O)nc1-c1nc2cc(C(F)(F)F)ncc2n1C [reference compound]						Emax at 20 g/ha (Nezara viridula): 0%
CCS(=O)(=O)c1ccc(NC(=O)N2CCCC2)nc1-c1nc2cc(C(F)(F)F)ncc2n1C [Example I-14]	100	90				
CCS(=O)(=O)c1ccc(NC(=O)NC)nc1-c1nc2cc(C(F)(F)F)ncc2n1C [Example I-4, 1-[5-Ethylsulfonyl-6-[3-methyl-6-(trifluoromethyl)imidazo[4,5-c]pyridin-2-yl]-2-pyridyl]-3-methylurea]			100			efficacy (Ctenocephalides felis [3]): 100%; Emax at 20 g/ha (Nezara viridula): 100%; chromatographic logP [4]: 1.83; efficacy (kill in %) (Lucilia cuprina): 100%; pest or weed control at 500 g/ha (Myzus persicae [2]): 90%; efficacy (Phaedon cochleariae; 500 g/ha): 100%
CCS(=O)(=O)c1ccc(NC(=O)N(C)C)nc1-c1nc2cc(C(F)(F)F)ncc2n1C [Example I-15]	100	90		100		efficacy (Phaedon cochleariae; 100 g/ha): 100%
CCS(=O)(=O)c1ccc(NC(=O)NCCOC)nc1-c1nc2cc(C(F)(F)F)ncc2n1C [Example I-5]	100		80	100	100	efficacy (kill in %) (Lucilia cuprina): 100%; pest or weed control at 500 g/ha (Myzus persicae [2]): 100%
CCC(=O)Nc1ccc(S(=O)(=O)CC)c(-c2nc3cc(C(F)(F)F)ncc3n2C)n1 [Example No. 13 known from WO 2016/124557, reference compound]						Emax at 100 g/ha (Tetranychus urticae): 0%; Emax at 500 g/ha (Tetranychus urticae): 70%; Emax at 20 g/ha (Phaedon cochleariae): 50%
CCS(=O)(=O)c1ccc(NC(=O)NCCSC)nc1-c1nc2cc(C(F)(F)F)ncc2n1C [Example I-6]	100	90			100	efficacy (Tetranychus urticae): 70%; efficacy (Phaedon cochleariae; 100 g/ha): 100%
CCS(=O)(=O)c1ccc(NC(=O)NCCS(C)(=O)=O)nc1-c1nc2cc(C(F)(F)F)ncc2n1C [Example I-8]	90	90	100		100	efficacy (Tetranychus urticae): 100%
CCS(=O)(=O)c1ccc(N(C)C(=O)NC)nc1-c1nc2cc(C(F)(F)F)ncc2n1C [Example I-12]		90				Emax at 4 g/ha (Nilaparvata lugens): 90%; Emax at 20 g/ha (Myzus persicae [2]): 90%
CCNC(=O)Nc1ccc(S(=O)(=O)CC)c(-c2nc3cc(C(F)(F)F)ncc3n2C)n1 [Example I-1]			100	100		efficacy (Tetranychus urticae): 90%; Emax at 100 g/ha (Tetranychus urticae): 90%; Emax at 500 g/ha (Tetranychus urticae): 90%; pest or weed control at 500 g/ha (Myzus persicae [2]): 90%; efficacy (Phaedon cochleariae; 500 g/ha): 100%; Emax at 20 g/ha (Phaedon cochleariae): 83%
CCS(=O)(=O)c1ccc(NC(=O)NC(C)C)nc1-c1nc2cc(C(F)(F)F)ncc2n1C [Example I-7]			100	90		
CCS(=O)(=O)c1ccc(NC(=O)NCC[S+](C)[O-])nc1-c1nc2cc(C(F)(F)F)ncc2n1C (stereo not shown) [Example I-3]	100	100	100	90	100	efficacy (Tetranychus urticae): 100%
CCS(=O)(=O)c1ccc(NC(=O)NCCC#N)nc1-c1nc2cc(C(F)(F)F)ncc2n1C [Example I-2]	100		100	100	100	pest or weed control at 500 g/ha (Myzus persicae [2]): 90%
CCS(=O)(=O)c1ccc(NC(=O)n2cc(Br)cn2)nc1-c1nc2cc(C(F)(F)F)ncc2n1C [Example I-13]	90	90				
CCS(=O)(=O)c1ccc(N(C)C(C)=O)nc1-c1nc2cc(C(F)(F)F)ncc2n1C [Example No. 69 known from WO 2016/124557, reference compound]						Emax at 4 g/ha (Nilaparvata lugens): 0%; Emax at 20 g/ha (Myzus persicae [2]): 0%
